According to PubChem BioAssay AID1963427 (Molecular Pharmacology Branch, DTP, NCI, 2024):

System: 317291-083-R-J1-PDC complex spheroid growth
Experiment: Anticancer human tumor 317291-083-R-J1-PDC patient-derived soft tissue sarcoma cell line growth inhibition [Asc]
Settings: for IC50: curve of first compound; for viability, T/C: stronger effect = lower value
How it was run: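 Stromal components (HUVEC and hMSC) are co-assembled with the cancer cells into multicellular spheroids. Drugs are then added singly or paired, at concentrations falling by half-log increments from a clinically achievable maximum, capped at 10 microM without known Cmax.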

[1] = second compound 0.00949 µM, first compound 0.00316 µM
[2] = second compound 0.00949 µM, first compound 0.01 µM
[3] = second compound 0.00949 µM, first compound 0.0316 µM
[4] = second compound 0.00949 µM, first compound 0.1 µM
[5] = second compound 0.03 µM, first compound 0.00316 µM
[6] = second compound 0.03 µM, first compound 0.01 µM
[7] = second compound 0.03 µM, first compound 0.0316 µM
[8] = second compound 0.03 µM, first compound 0.1 µM
[9] = second compound 0.0949 µM, first compound 0.00316 µM
[10] = second compound 0.0949 µM, first compound 0.01 µM
[11] = second compound 0.0949 µM, first compound 0.0316 µM
[12] = second compound 0.0949 µM, first compound 0.1 µM
[13] = second compound 0.3 µM, first compound 0.00316 µM
[14] = second compound 0.3 µM, first compound 0.01 µM
[15] = second compound 0.3 µM, first compound 0.0316 µM
[16] = second compound 0.3 µM, first compound 0.1 µM
[17] = second compound 0.949 µM, first compound 0.00316 µM
[18] = second compound 0.949 µM, first compound 0.01 µM
[19] = second compound 0.949 µM, first compound 0.0316 µM
[20] = second compound 0.949 µM, first compound 0.1 µM
[21] = second compound 3 µM, first compound 0.00316 µM
[22] = second compound 3 µM, first compound 0.01 µM
[23] = second compound 3 µM, first compound 0.0316 µM
[24] = second compound 3 µM, first compound 0.1 µM
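Note: compound exposure lasted seven days after spheroids formed for three days.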
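Throughout, for viability, T/C: 100% = DMSO vehicle control wells.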

SMILES: COc1c(OCCCN2CCOCC2)ccc2c3n(c(=NC(=O)c4cnc(N)nc4)nc12)CCN3 + CCN1C(C(=O)NC23CCC(C(=O)O)(CC2)CC3)C(c2cccc(Cl)c2F)C2(C(=O)Nc3cc(Cl)ccc32)C12CCCCC2
- IC50 (second compound 0.00949 µM): 177 nM
- IC50 (second compound 0.03 µM): 182 nM
- IC50 (second compound 0.0949 µM): 213 nM
- IC50 (second compound 0.3 µM): 173 nM
- IC50 (second compound 0.949 µM): 180 nM
- IC50 (second compound 3 µM): 127 nM
- viability, T/C [1]: 95.6%
- viability, T/C [2]: 85.8%
- viability, T/C [3]: 85%
- viability, T/C [4]: 64.9%
- viability, T/C (second compound 0.00949 µM, first compound 0.316 µM): 34.6%
- viability, T/C (second compound 0.00949 µM, first compound 1 µM): 16.3%
- viability, T/C [5]: 95.6%
- viability, T/C [6]: 79.2%
- viability, T/C [7]: 79.5%
- viability, T/C [8]: 56.2%
- viability, T/C (second compound 0.03 µM, first compound 0.316 µM): 43.8%
- viability, T/C (second compound 0.03 µM, first compound 1 µM): 13.9%
- viability, T/C [9]: 93.7%
- viability, T/C [10]: 83.4%
- viability, T/C [11]: 81.3%
- viability, T/C [12]: 79.4%
- viability, T/C (second compound 0.0949 µM, first compound 0.316 µM): 34.8%
- viability, T/C (second compound 0.0949 µM, first compound 1 µM): 16.9%
- viability, T/C [13]: 120%
- viability, T/C [14]: 76.9%
- viability, T/C [15]: 84.7%
- viability, T/C [16]: 67%
- viability, T/C (second compound 0.3 µM, first compound 0.316 µM): 37.1%
- viability, T/C (second compound 0.3 µM, first compound 1 µM): 17.4%
- viability, T/C [17]: 85.1%
- viability, T/C [18]: 74%
- viability, T/C [19]: 86.8%
- viability, T/C [20]: 58.5%
- viability, T/C (second compound 0.949 µM, first compound 0.316 µM): 39.2%
- viability, T/C (second compound 0.949 µM, first compound 1 µM): 15.4%
- viability, T/C [21]: 88.2%
- viability, T/C [22]: 71%
- viability, T/C [23]: 73.3%
- viability, T/C [24]: 55%
- viability, T/C (second compound 3 µM, first compound 0.316 µM): 32.8%
- viability, T/C (second compound 3 µM, first compound 1 µM): 15.2%

SMILES: NC(=O)C(=Cn1cnc(-c2cc(C(F)(F)F)cc(C(F)(F)F)c2)n1)c1cncnc1 + CCN1C(C(=O)NC23CCC(C(=O)O)(CC2)CC3)C(c2cccc(Cl)c2F)C2(C(=O)Nc3cc(Cl)ccc32)C12CCCCC2
- IC50 (second compound 0.00949 µM): 34.2 nM
- IC50 (second compound 0.03 µM): 21.5 nM
- IC50 (second compound 0.0949 µM): 23.8 nM
- IC50 (second compound 0.3 µM): 24.3 nM
- IC50 (second compound 0.949 µM): 23.6 nM
- IC50 (second compound 3 µM): 18.2 nM
- viability, T/C (second compound 0.00949 µM, first compound 0.000949 µM): 97.9%
- viability, T/C (second compound 0.00949 µM, first compound 0.003 µM): 83.4%
- viability, T/C (second compound 0.00949 µM, first compound 0.00949 µM): 79.2%
- viability, T/C (second compound 0.00949 µM, first compound 0.03 µM): 57.7%
- viability, T/C (second compound 0.00949 µM, first compound 0.0949 µM): 10%
- viability, T/C (second compound 0.00949 µM, first compound 0.3 µM): 2.56%
- viability, T/C (second compound 0.03 µM, first compound 0.000949 µM): 118%
- viability, T/C (second compound 0.03 µM, first compound 0.003 µM): 87.6%
- viability, T/C (second compound 0.03 µM, first compound 0.00949 µM): 84.8%
- viability, T/C (second compound 0.03 µM, first compound 0.03 µM): 38.2%
- viability, T/C (second compound 0.03 µM, first compound 0.0949 µM): 5.81%
- viability, T/C (second compound 0.03 µM, first compound 0.3 µM): 2.23%
- viability, T/C (second compound 0.0949 µM, first compound 0.000949 µM): 94.6%
- viability, T/C (second compound 0.0949 µM, first compound 0.003 µM): 109%
- viability, T/C (second compound 0.0949 µM, first compound 0.00949 µM): 72.4%
- viability, T/C (second compound 0.0949 µM, first compound 0.03 µM): 46.4%
- viability, T/C (second compound 0.0949 µM, first compound 0.0949 µM): 10.3%
- viability, T/C (second compound 0.0949 µM, first compound 0.3 µM): 2.94%
- viability, T/C (second compound 0.3 µM, first compound 0.000949 µM): 95.1%
- viability, T/C (second compound 0.3 µM, first compound 0.003 µM): 106%
- viability, T/C (second compound 0.3 µM, first compound 0.00949 µM): 74.6%
- viability, T/C (second compound 0.3 µM, first compound 0.03 µM): 47.4%
- viability, T/C (second compound 0.3 µM, first compound 0.0949 µM): 7.13%
- viability, T/C (second compound 0.3 µM, first compound 0.3 µM): 2.81%
- viability, T/C (second compound 0.949 µM, first compound 0.000949 µM): 110%
- viability, T/C (second compound 0.949 µM, first compound 0.003 µM): 90.3%
- viability, T/C (second compound 0.949 µM, first compound 0.00949 µM): 69.6%
- viability, T/C (second compound 0.949 µM, first compound 0.03 µM): 55.6%
- viability, T/C (second compound 0.949 µM, first compound 0.0949 µM): 4.34%
- viability, T/C (second compound 0.949 µM, first compound 0.3 µM): 2.96%
- viability, T/C (second compound 3 µM, first compound 0.000949 µM): 100%
- viability, T/C (second compound 3 µM, first compound 0.003 µM): 87.2%
- viability, T/C (second compound 3 µM, first compound 0.00949 µM): 76.8%
- viability, T/C (second compound 3 µM, first compound 0.03 µM): 27.7%
- viability, T/C (second compound 3 µM, first compound 0.0949 µM): 21.7%
- viability, T/C (second compound 3 µM, first compound 0.3 µM): 2.15%

SMILES: NC1CCC(NC2CC2c2ccccc2)CC1 (stereo unspecified) + CCN1C(C(=O)NC23CCC(C(=O)O)(CC2)CC3)C(c2cccc(Cl)c2F)C2(C(=O)Nc3cc(Cl)ccc32)C12CCCCC2
- IC50 (second compound 0.00949 µM): > 100 nM
- IC50 (second compound 0.03 µM): > 100 nM
- IC50 (second compound 0.0949 µM): > 100 nM
- IC50 (second compound 0.3 µM): > 100 nM
- IC50 (second compound 0.949 µM): > 100 nM
- IC50 (second compound 3 µM): > 100 nM
- viability, T/C (second compound 0.00949 µM, first compound 0.000316 µM): 92.4%
- viability, T/C (second compound 0.00949 µM, first compound 0.001 µM): 103%
- viability, T/C [1]: 96.6%
- viability, T/C [2]: 97%
- viability, T/C [3]: 95.5%
- viability, T/C [4]: 94.2%
- viability, T/C (second compound 0.03 µM, first compound 0.000316 µM): 109%
- viability, T/C (second compound 0.03 µM, first compound 0.001 µM): 100%
- viability, T/C [5]: 106%
- viability, T/C [6]: 114%
- viability, T/C [7]: 107%
- viability, T/C [8]: 94.2%
- viability, T/C (second compound 0.0949 µM, first compound 0.000316 µM): 103%
- viability, T/C (second compound 0.0949 µM, first compound 0.001 µM): 81.3%
- viability, T/C [9]: 87.6%
- viability, T/C [10]: 95.7%
- viability, T/C [11]: 106%
- viability, T/C [12]: 108%
- viability, T/C (second compound 0.3 µM, first compound 0.000316 µM): 116%
- viability, T/C (second compound 0.3 µM, first compound 0.001 µM): 108%
- viability, T/C [13]: 98.9%
- viability, T/C [14]: 80.3%
- viability, T/C [15]: 102%
- viability, T/C [16]: 111%
- viability, T/C (second compound 0.949 µM, first compound 0.000316 µM): 98.9%
- viability, T/C (second compound 0.949 µM, first compound 0.001 µM): 120%
- viability, T/C [17]: 76.2%
- viability, T/C [18]: 93.8%
- viability, T/C [19]: 97.6%
- viability, T/C [20]: 106%
- viability, T/C (second compound 3 µM, first compound 0.000316 µM): 99.7%
- viability, T/C (second compound 3 µM, first compound 0.001 µM): 107%
- viability, T/C [21]: 81.5%
- viability, T/C [22]: 74.2%
- viability, T/C [23]: 83.6%
- viability, T/C [24]: 74.3%
